# Source: US12281084B2, “Acetyl-CoA synthetase 2 (ACSS2) inhibitors and methods using same” (The Wistar Institute, priority 2019, dated 2025)
# Entries after “also recorded” stand apart in the source; their conditions may differ.
# Test system: BT474 tumors
# Assay: BT474 tumor xenograft growth in NSG mice
# Assay type: in vivo, mouse
# Method: For BT474 mouse xenograft studies 5-6 week old female NSG […] were anesthetized and one 17β-estradiol 60 day release pellet (Innovative Research of America Cat. No. SE-121) was injected subcutaneously via 10 gauge precision trochar into the lateral side of the neck between the ear and shoulder. 24 hours later 10^5 BT474 luciferase positive cells in 100 μl PBS:matrigel (growth factor reduced) were injected subcutaneously into the hind limb. For A7C11 and Brpkp110 xenografts, 5×10^5 cells in 100 μl PBS:Matrigel (growth factor reduced Corning Cat. No. 356231) were subcutaneously injected into the hindlimb of 5-6 week old female NSG mice […]. Following tumor establishment in all groups, mice were randomized and treated intraperitoneally (IP) daily with vehicle (10% DMSO, 10% absolute ethanol, 20% solutol, 60% water containing 0.5% Tween20) or 100 mg/kg VY-3-135 as indicated in the figure legend. Tumors were measured thrice weekly via caliper measurement and tumor volume calculated as (L×W^2)/2 (where L is the longer of the 2 measurements). […]
# Mice bearing luciferase positive tumors were injected IP with 150 mg/kg sterile filtered D-luciferin potassium salt (Gold Bio Cat. No. LUCK-1G). […] Images were analyzed using Living Image Software (Perkin Elmer). […]
structure (smiles),measurement,setting,value
"CCn1c(C(O)(c2ccccc2)c2ccccc2)nc2ccc(C(=O)NC[C@@H](C)O)cc21 [VY-3-135, (R)-1-ethyl-2-(hydroxydiphenylmethyl)-N-(2-hydroxypropyl)-1H-benzo[d]imidazole-6-carboxamide]",tumor palpability / regression at end of regimen,"BT474 luciferase tumors, VY-3-135 treated group","two of the tumors in VY-3-135 treated group were not palpable by the end of the regimen, with one tumor fully regressing"
same,BT474 tumor growth,"VY-3-135 100 mg/kg IP daily, two weeks of treatment (FIG. 6A), 100 mg/kg",causes a significant decrease in BT474+luciferase tumor growth; also recorded: completely abrogated tumor growth
